In ChEMBL document CHEMBL5137053 (J Med Chem, 2022) one finds Ki data, which are given here for one compound.

This test is described as follows: Binding affinity to NL63-CoV main protease by FRET assay. Details: species or system Human coronavirus NL63.

The term Ki denotes the dissociation constant of the complex between target and ligand, obtained from inhibition or displacement. Read a high Ki as a looser hold on the target.

`CC(C)(C)[C@H](NC(=O)C(F)(F)F)C(=O)N1C[C@H]2[C@@H]([C@H]1C(=O)N[C@H](C#N)C[C@@H]1CCNC1=O)C2(C)C` registered a Ki of 226 nM.
